{"source": "patent US8192962B2", "about": "“Processes for detecting toxic substances” (Daikin Industries, Ltd., priority 2001, dated 2012)", "tested_on": "Detoxification protein genes", "assay": "DNA chip mRNA expression in yeast, detoxification protein genes (Table 8)", "format": "cell-based, Saccharomyces cerevisiae S288C", "outline": "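Cells were grown at 25° C. in YPD, treated at logarithmic phase for 2 h with a chemical at a concentration inhibiting growth but not causing death, and compared with untreated cultures. Labeled cDNA was hybridized to a DNA chip carrying all yeast genes, and the expression ratio was taken from scanner fluorescence.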"}
{"compound": "[Cl][Cd][Cl]", "note": "[(2), CdCl2]", "values": [{"measurement": "The level of expressed mRNA in the presence of chemical substance/The level of expressed mRNA in the absence of chemical substance", "setting": "yeast gene YBL064C", "value": 2.8}, {"measurement": "The level of expressed mRNA in the presence of chemical substance/The level of expressed mRNA in the absence of chemical substance", "setting": "yeast gene YBR008C", "value": 2.4}, {"measurement": "The level of expressed mRNA in the presence of chemical substance/The level of expressed mRNA in the absence of chemical substance", "setting": "yeast gene YBR145W", "value": 0.7}, {"measurement": "The level of expressed mRNA in the presence of chemical substance/The level of expressed mRNA in the absence of chemical substance", "setting": "yeast gene YBR244W", "value": 1.4}, {"measurement": "The level of expressed mRNA in the presence of chemical substance/The level of expressed mRNA in the absence of chemical substance", "setting": "yeast gene YBR293W", "value": 3.1}, {"measurement": "The level of expressed mRNA in the presence of chemical substance/The level of expressed mRNA in the absence of chemical substance", "setting": "yeast gene YCL035C", "value": 2.3}, {"measurement": "The level of expressed mRNA in the presence of chemical substance/The level of expressed mRNA in the absence of chemical substance", "setting": "yeast gene YCL069W", "value": 15.7}, {"measurement": "The level of expressed mRNA in the presence of chemical substance/The level of expressed mRNA in the absence of chemical substance", "setting": "yeast gene YCR083W", "value": 2.8}, {"measurement": "The level of expressed mRNA in the presence of chemical substance/The level of expressed mRNA in the absence of chemical substance", "setting": "yeast gene YDL100C", "value": 1.2}, {"measurement": "The level of expressed mRNA in the presence of chemical substance/The level of expressed mRNA in the absence of chemical substance", "setting": "yeast gene YDL168W", "value": 2.0}, {"measurement": "The level of expressed mRNA in the presence of chemical substance/The level of expressed mRNA in the absence of chemical substance", "setting": "yeast gene YDR256C", "value": 1.4}, {"measurement": "The level of expressed mRNA in the presence of chemical substance/The level of expressed mRNA in the absence of chemical substance", "setting": "yeast gene YDR453C", "value": 2.7}, {"measurement": "The level of expressed mRNA in the presence of chemical substance/The level of expressed mRNA in the absence of chemical substance", "setting": "yeast gene YDR513W", "value": 2.5}, {"measurement": "The level of expressed mRNA in the presence of chemical substance/The level of expressed mRNA in the absence of chemical substance", "setting": "yeast gene YDR538W", "value": 1.1}, {"measurement": "The level of expressed mRNA in the presence of chemical substance/The level of expressed mRNA in the absence of chemical substance", "setting": "yeast gene YEL027W", "value": 0.6}, {"measurement": "The level of expressed mRNA in the presence of chemical substance/The level of expressed mRNA in the absence of chemical substance", "setting": "yeast gene YEL065W", "value": 3.8}, {"measurement": "The level of expressed mRNA in the presence of chemical substance/The level of expressed mRNA in the absence of chemical substance", "setting": "yeast gene YER185W", "value": 3.1}, {"measurement": "The level of expressed mRNA in the presence of chemical substance/The level of expressed mRNA in the absence of chemical substance", "setting": "yeast gene YFL050C", "value": 1.0}, {"measurement": "The level of expressed mRNA in the presence of chemical substance/The level of expressed mRNA in the absence of chemical substance", "setting": "yeast gene YGL013C", "value": 1.2}, {"measurement": "The level of expressed mRNA in the presence of chemical substance/The level of expressed mRNA in the absence of chemical substance", "setting": "yeast gene YGL254W", "value": 1.1}, {"measurement": "The level of expressed mRNA in the presence of chemical substance/The level of expressed mRNA in the absence of chemical substance", "setting": "yeast gene YGR088W", "value": 1.2}, {"measurement": "The level of expressed mRNA in the presence of chemical substance/The level of expressed mRNA in the absence of chemical substance", "setting": "yeast gene YGR138C", "value": 1.6}, {"measurement": "The level of expressed mRNA in the presence of chemical substance/The level of expressed mRNA in the absence of chemical substance", "setting": "yeast gene YGR197C", "value": 2.4}, {"measurement": "The level of expressed mRNA in the presence of chemical substance/The level of expressed mRNA in the absence of chemical substance", "setting": "yeast gene YGR209C", "value": 3.1}, {"measurement": "The level of expressed mRNA in the presence of chemical substance/The level of expressed mRNA in the absence of chemical substance", "setting": "yeast gene YGR224W", "value": 1.2}, {"measurement": "The level of expressed mRNA in the presence of chemical substance/The level of expressed mRNA in the absence of chemical substance", "setting": "yeast gene YHL040C", "value": 4.4}, {"measurement": "The level of expressed mRNA in the presence of chemical substance/The level of expressed mRNA in the absence of chemical substance", "setting": "yeast gene YHL047C", "value": 4.4}, {"measurement": "The level of expressed mRNA in the presence of chemical substance/The level of expressed mRNA in the absence of chemical substance", "setting": "yeast gene YHR008C", "value": 6.9}, {"measurement": "The level of expressed mRNA in the presence of chemical substance/The level of expressed mRNA in the absence of chemical substance", "setting": "yeast gene YHR048W", "value": 1.4}, {"measurement": "The level of expressed mRNA in the presence of chemical substance/The level of expressed mRNA in the absence of chemical substance", "setting": "yeast gene YHR053C", "value": 2.1}, {"measurement": "The level of expressed mRNA in the presence of chemical substance/The level of expressed mRNA in the absence of chemical substance", "setting": "yeast gene YHR055C", "value": 1.8}, {"measurement": "The level of expressed mRNA in the presence of chemical substance/The level of expressed mRNA in the absence of chemical substance", "setting": "yeast gene YIR002C", "value": 1.1}, {"measurement": "The level of expressed mRNA in the presence of chemical substance/The level of expressed mRNA in the absence of chemical substance", "setting": "yeast gene YIR038C", "value": 3.5}, {"measurement": "The level of expressed mRNA in the presence of chemical substance/The level of expressed mRNA in the absence of chemical substance", "setting": "yeast gene YJL101C", "value": 1.9}, {"measurement": "The level of expressed mRNA in the presence of chemical substance/The level of expressed mRNA in the absence of chemical substance", "setting": "yeast gene YJR104C", "value": 1.8}, {"measurement": "The level of expressed mRNA in the presence of chemical substance/The level of expressed mRNA in the absence of chemical substance", "setting": "yeast gene YKL026C", "value": 2.0}, {"measurement": "The level of expressed mRNA in the presence of chemical substance/The level of expressed mRNA in the absence of chemical substance", "setting": "yeast gene YKL064W", "value": 0.9}, {"measurement": "The level of expressed mRNA in the presence of chemical substance/The level of expressed mRNA in the absence of chemical substance", "setting": "yeast gene YKR066C", "value": 1.4}, {"measurement": "The level of expressed mRNA in the presence of chemical substance/The level of expressed mRNA in the absence of chemical substance", "setting": "yeast gene YKR105C", "value": 0.9}, {"measurement": "The level of expressed mRNA in the presence of chemical substance/The level of expressed mRNA in the absence of chemical substance", "setting": "yeast gene YKR106W", "value": 0.8}, {"measurement": "The level of expressed mRNA in the presence of chemical substance/The level of expressed mRNA in the absence of chemical substance", "setting": "yeast gene YLL028W", "value": 0.9}, {"measurement": "The level of expressed mRNA in the presence of chemical substance/The level of expressed mRNA in the absence of chemical substance", "setting": "yeast gene YLL057C", "value": 59.9}, {"measurement": "The level of expressed mRNA in the presence of chemical substance/The level of expressed mRNA in the absence of chemical substance", "setting": "yeast gene YLL060C", "value": 4.2}, {"measurement": "The level of expressed mRNA in the presence of chemical substance/The level of expressed mRNA in the absence of chemical substance", "setting": "yeast gene YLR043C", "value": 1.4}, {"measurement": "The level of expressed mRNA in the presence of chemical substance/The level of expressed mRNA in the absence of chemical substance", "setting": "yeast gene YLR046C", "value": 1.7}, {"measurement": "The level of expressed mRNA in the presence of chemical substance/The level of expressed mRNA in the absence of chemical substance", "setting": "yeast gene YML028W", "value": 2.2}, {"measurement": "The level of expressed mRNA in the presence of chemical substance/The level of expressed mRNA in the absence of chemical substance", "setting": "yeast gene YML116W", "value": 1.3}, {"measurement": "The level of expressed mRNA in the presence of chemical substance/The level of expressed mRNA in the absence of chemical substance", "setting": "yeast gene YMR015C", "value": 0.7}, {"measurement": "The level of expressed mRNA in the presence of chemical substance/The level of expressed mRNA in the absence of chemical substance", "setting": "yeast gene YMR038C", "value": 1.7}, {"measurement": "The level of expressed mRNA in the presence of chemical substance/The level of expressed mRNA in the absence of chemical substance", "setting": "yeast gene YNL239W", "value": 2.4}, {"measurement": "The level of expressed mRNA in the presence of chemical substance/The level of expressed mRNA in the absence of chemical substance", "setting": "yeast gene YNL241C", "value": 2.5}, {"measurement": "The level of expressed mRNA in the presence of chemical substance/The level of expressed mRNA in the absence of chemical substance", "setting": "yeast gene YNL259C", "value": 4.5}, {"measurement": "The level of expressed mRNA in the presence of chemical substance/The level of expressed mRNA in the absence of chemical substance", "setting": "yeast gene YOL158C", "value": 4.0}, {"measurement": "The level of expressed mRNA in the presence of chemical substance/The level of expressed mRNA in the absence of chemical substance", "setting": "yeast gene YOR031W", "value": 1.7}, {"measurement": "The level of expressed mRNA in the presence of chemical substance/The level of expressed mRNA in the absence of chemical substance", "setting": "yeast gene YOR153W", "value": 0.9}, {"measurement": "The level of expressed mRNA in the presence of chemical substance/The level of expressed mRNA in the absence of chemical substance", "setting": "yeast gene YOR247W", "value": 0.6}, {"measurement": "The level of expressed mRNA in the presence of chemical substance/The level of expressed mRNA in the absence of chemical substance", "setting": "yeast gene YOR251C", "value": 1.0}, {"measurement": "The level of expressed mRNA in the presence of chemical substance/The level of expressed mRNA in the absence of chemical substance", "setting": "yeast gene YOR273C", "value": 1.0}, {"measurement": "The level of expressed mRNA in the presence of chemical substance/The level of expressed mRNA in the absence of chemical substance", "setting": "yeast gene YPL163C", "value": 0.7}, {"measurement": "The level of expressed mRNA in the presence of chemical substance/The level of expressed mRNA in the absence of chemical substance", "setting": "yeast gene YPR200C", "value": 1.7}]}
